Measured values as given in ChEMBL document CHEMBL1201862, “PubChem BioAssay data set” (2004).
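Where inhibition never reached the appropriate level, the endpoint shown equals the highest concentration tested. Otherwise, values were interpolated linearly from a five-concentration, 48-hour dose response in 96-well plates. Here, GI50 denotes the concentration required for 50% inhibition of growth.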 The source made the active and inactive calls. Rule as the data show it: active = GI50 up to about 1.1 µM and inactive = higher.

Columns and labels:
Assay in all cases: NCI-60 cell line screen, 48 h
XF498 = test system: XF498
HL-60 = test system: HL-60
SF-268 = test system: SF-268
HOP-62 = test system: HOP-62
UACC-62 = test system: UACC-62
DMS-273 = test system: DMS-273
SK-MEL-2 = test system: SK-MEL-2
HOP-18 = test system: HOP-18
DU-145 = test system: DU-145
LXFL 529 = test system: LXFL 529
ACHN = test system: ACHN
SN12C = test system: SN12C
HOP-92 = test system: HOP-92
MDA-MB-435 = test system: MDA-MB-435
SNB-75 = test system: SNB-75
SK-MEL-28 = test system: SK-MEL-28
KM12 = test system: KM12
Malme-3M = test system: Malme-3M
SR = test system: SR
HCT-116 = test system: HCT-116
DMS-114 = test system: DMS-114
LOX IMVI = test system: LOX IMVI
NCI-H460 = test system: NCI-H460
RXF 393 = test system: RXF 393
786-0 = test system: 786-0
OVCAR-4 = test system: OVCAR-4
U-251 = test system: U-251
CAKI-1 = test system: CAKI-1
HT-29 = test system: HT-29
MCF7 = test system: MCF7
TK-10 = test system: TK-10
EKVX = test system: EKVX
OVCAR-8 = test system: OVCAR-8
COLO 205 = test system: COLO 205
HCT-15 = test system: HCT-15
UACC-257 = test system: UACC-257
NCI-H226 = test system: NCI-H226
OVCAR-5 = test system: OVCAR-5
SK-MEL-5 = test system: SK-MEL-5
HCC 2998 = test system: HCC 2998
NCI-H23 = test system: NCI-H23
SNB-78 = test system: SNB-78
CCRF-CEM = test system: CCRF-CEM
KM-20L2 = test system: KM-20L2
K562 = test system: K562
OVCAR-3 = test system: OVCAR-3
A498 = test system: A498
UO-31 = test system: UO-31
NCI-H522 = test system: NCI-H522
DLD-1 = test system: DLD-1
M19-MEL = test system: M19-MEL
SW-620 = test system: SW-620
A549 = test system: A549
MOLT-4 = test system: MOLT-4
SK-OV-3 = test system: SK-OV-3
SF-539 = test system: SF-539
SNB-19 = test system: SNB-19
RPMI-8226 = test system: RPMI-8226
SF-295 = test system: SF-295
PC-3 = test system: PC-3
M14 = test system: M14
IGROV-1 = test system: IGROV-1

COC1CC(C)C(OC)C2=CC(=O)C=C(NC(=O)/C(C)=C/C=C\C(C)C(OC(N)=O)/C(C)=C\C(C)C1OC)C2=O (configuration not stated)
GI50 (XF498): 681 nM (active) | GI50 (HL-60): 182 nM (active) | GI50 (SF-268): 1310 nM (inactive) | GI50 (HOP-62): 1480 nM (inactive) | GI50 (UACC-62): 492 nM (active) | GI50 (DMS-273): 239 nM (active) | GI50 (SK-MEL-2): 525 nM (active) | GI50 (HOP-18): 179 nM (active) | GI50 (DU-145): 643 nM (active) | GI50 (LXFL 529): 191 nM (active) | GI50 (ACHN): 1250 nM (inactive) | GI50 (SN12C): 296 nM (active) | GI50 (HOP-92): 313 nM (active) | GI50 (MDA-MB-435): 72.1 nM (active) | GI50 (SNB-75): 762 nM (active) | GI50 (SK-MEL-28): 166 nM (active) | GI50 (KM12): 521 nM (active) | GI50 (Malme-3M): 334 nM (active) | GI50 (SR): 68.2 nM (active) | GI50 (HCT-116): 313 nM (active) | GI50 (DMS-114): 403 nM (active) | GI50 (LOX IMVI): 379 nM (active) | GI50 (NCI-H460): 422 nM (active) | GI50 (RXF 393): 337 nM (active) | GI50 (786-0): 902 nM (active) | GI50 (OVCAR-4): 834 nM (active) | GI50 (U-251): 370 nM (active) | GI50 (CAKI-1): 2520 nM (inactive) | GI50 (HT-29): 244 nM (active) | GI50 (MCF7): 62.1 nM (active) | GI50 (TK-10): 2090 nM (inactive) | GI50 (EKVX): 11000 nM (inactive) | GI50 (OVCAR-8): 1670 nM (inactive) | GI50 (COLO 205): 41.4 nM (active) | GI50 (HCT-15): 1330 nM | GI50 (UACC-257): 261 nM (active) | GI50 (NCI-H226): 6150 nM (inactive) | GI50 (OVCAR-5): 3200 nM (inactive) | GI50 (SK-MEL-5): 804 nM (active) | GI50 (HCC 2998): 665 nM (active) | GI50 (NCI-H23): 447 nM (active) | GI50 (SNB-78): 1710 nM (inactive) | GI50 (CCRF-CEM): 117 nM (active) | GI50 (KM-20L2): 202 nM (active) | GI50 (K562): 114 nM (active) | GI50 (OVCAR-3): 313 nM (active) | GI50 (A498): 11700 nM (inactive) | GI50 (UO-31): 4830 nM (inactive) | GI50 (NCI-H522): 90.8 nM (active) | GI50 (DLD-1): 804 nM (active) | GI50 (M19-MEL): 441 nM (active) | GI50 (SW-620): 48.5 nM (active) | GI50 (A549): 2900 nM (inactive) | GI50 (MOLT-4): 53.5 nM (active) | GI50 (SK-OV-3): 357 nM (active) | GI50 (SF-539): 355 nM (active) | GI50 (SNB-19): 495 nM (active) | GI50 (RPMI-8226): 313 nM (active) | GI50 (SF-295): 1070 nM (active) | GI50 (PC-3): 11500 nM (inactive) | GI50 (M14): 589 nM (active) | GI50 (IGROV-1): 2970 nM (inactive)
